Laboratory results taken from paper PMC10600239, “Selective MCL-1 inhibitor ABBV-467 is efficacious in tumor models but is associated with cardiac troponin increases in patients” (Communications Medicine, 2023).
“And” between values parts separate entries of the source, which are not always exact repeats. Equal entries are not always repeated.

Columns and labels:
[1] = system: MV4-11-Red.Fluc; experiment: Systemic MV4-11-Red.Fluc model (bioluminescence, total flux); format: in vivo, mouse; parameters: bioluminescence signal, individual mouse (ear tag), 10 min post: unit: p/s; conditions: for bioluminescence signal, group Average, 10 min post / bioluminescence signal, individual mouse (ear tag), 10 min post: MV 4-11 red.fluc, A-1726694 q7dx3 IV, ABT-199 50mkd qdx21 PO
Protocol: All animal studies were conducted in accordance with the guidelines approved by the Institutional Animal Care and Use Committees of AbbVie. The research protocol was approved by In Vivo Pharmacology at AbbVie prior to study initiation but was not publicly registered or disclosed. Female C.B-17 SCID-beige mice (AMO-1, OPM-2, NCI-H929, and OCI-AML2 xenografts) and female NSG mice (MV4-11-Red.Fluc systemic) were purchased from Charles River Laboratories (Wilmington, MA). Animals were housed in a light cycle-controlled room with HEPA filtration at 22 °C. Animals had nesting and climbing cage topper as the primary environmental enrichment. Animals were inoculated subcutaneously in the right flank with 5 × 10^6 (AMO-1, OPM-2, NCI-H929, and OCI-AML2) or intravenous (IV) with 5 × 10^6 (MV4-11-Red.Fluc). The inoculation volume (0.2 mL) comprised a 50:50 mixture of cells in growth media and Matrigel (BD Biosciences) for subcutaneous injections and 100% phosphate-buffered saline for IV administration. All cell lines used in this publication were authenticated using IDEXX for STR profiling as well as their IMPACT and human IMPACT panels for pathogen screening. Electronic calipers were used to measure the length and width of each tumor 2 to 3 times per week. Tumor volume was estimated by applying the following equation: volume = length × width^2/2. All groups remained blinded during measurements and dosing; only veterinary staff were aware of group identity. When tumors reached approximately 200 mm^3, mice were randomized by match and distributed into treatment and control groups. All xenograft trials were conducted using 5 to 10 mice per group, and all mice were ear tagged and monitored individually throughout the studies. Any animal with a tumor above 2000 mm^3 or 15% loss in body weight was euthanized and removed from the study. Tumor burden in the systemic MV4-11-Red.Fluc experiment was measured using an IVIS® spectrum from PerkinElmer by taking the total photon flux of the entire dorsal side of an individual mouse. Ten minutes prior to imaging, animals received intraperitoneally 0.2 mL of a 15-mg/mL solution of D-Luciferin (PerkinElmer, Catalog #122799) formulated in 100% phosphate-buffered saline. Animals were anesthetized using 3.5% isoflurane and maintained using 2%. Six days after inoculation, animals were imaged and randomized into vehicle and treatment groups at a total flux of ~1 × 10^8. A background control mouse that was tumor naive but received D-Luciferin was placed in the upper left corner of each image. The total flux from this animal was subtracted from the total flux of each animal present in the image. […]

[2] = system: OCI-AML2 xenografts; experiment: OCI-AML2 xenograft efficacy (tumor volume, body weight); conditions: venetoclax 25 mg/kg QD × 14, azacitidine 8 mg/kg Q7D × 3, or the combination of both
Protocol: All animal studies were conducted in accordance with the guidelines approved by the Institutional Animal Care and Use Committees of AbbVie. The research protocol was approved by In Vivo Pharmacology at AbbVie prior to study initiation but was not publicly registered or disclosed. Female C.B-17 SCID-beige mice (AMO-1, OPM-2, NCI-H929, and OCI-AML2 xenografts) and female NSG mice (MV4-11-Red.Fluc systemic) were purchased from Charles River Laboratories (Wilmington, MA). Animals were housed in a light cycle-controlled room with HEPA filtration at 22 °C. Animals had nesting and climbing cage topper as the primary environmental enrichment. Animals were inoculated subcutaneously in the right flank with 5 × 10^6 (AMO-1, OPM-2, NCI-H929, and OCI-AML2) or intravenous (IV) with 5 × 10^6 (MV4-11-Red.Fluc). The inoculation volume (0.2 mL) comprised a 50:50 mixture of cells in growth media and Matrigel (BD Biosciences) for subcutaneous injections and 100% phosphate-buffered saline for IV administration. […] Electronic calipers were used to measure the length and width of each tumor 2 to 3 times per week. Tumor volume was estimated by applying the following equation: volume = length × width^2/2. All groups remained blinded during measurements and dosing; only veterinary staff were aware of group identity. When tumors reached approximately 200 mm^3, mice were randomized by match and distributed into treatment and control groups. All xenograft trials were conducted using 5 to 10 mice per group, and all mice were ear tagged and monitored individually throughout the studies.
For combination studies, all compounds were administered within 30 min of each other.
The tumor growth delay (TGD) percentage was determined as the percentage increase of the median time period for the treatment group to reach an arbitrary tumor volume of 1000 mm^3 relative to the vehicle control group. […] A power analysis was conducted using historical data to determine the number of animals required to yield significance of 0.05 at a 30% difference. There were no animals excluded. Data from experiments in vivo were analyzed using the student’s t-test for TGI values and the Mann–Whitney U test for TGD using Excel and GraphPad Prism. Fisher’s exact test was used to probe significance of differences in response frequency.

[3] = Day 10, individual mice (ROI 2-10), listed as ABT-199
[4] = Day 13, individual mice (ROI 2-10), listed as ABT-199
[5] = Day 17, individual mice (ROI 2-10), listed as ABT-199
[6] = Day 20, individual mice (ROI 2-10), listed as ABT-199
[7] = Day 24, individual mice (ROI 2-10), listed as ABT-199
[8] = Day 31, individual mice (ROI 2-10), listed as ABT-199

SMILES: CC1(C)CCC(CN2CCN(c3ccc(C(=O)NS(=O)(=O)c4ccc(NCC5CCOCC5)c([N+](=O)[O-])c4)c(Oc4cnc5[nH]ccc5c4)c3)CC2)=C(c2ccc(Cl)cc2)C1 [venetoclax]
- antitumor activity ([1]; 50 mg/kg for 21 days, PO): no antitumor activity
- Total Flux ([1]; 648 h): 2.48E+10 p/s
- Total Flux minus ROI 1 (background) ([1]; 648 h): 2.48E+10 p/s
- Total Flux [p/s] [1, 3]: 3.06E+08 p/s and 5.81E+08 p/s and 2.31E+08 p/s and 9.72E+08 p/s and 7.29E+08 p/s and 4.72E+08 p/s and 3.55E+08 p/s and 4.65E+08 p/s and 4.49E+08 p/s
- Total flux minus background control mouse (ROI 1) [1, 3]: 3.02E+08 p/s and 5.77E+08 p/s and 2.27E+08 p/s and 9.68E+08 p/s and 7.24E+08 p/s and 4.68E+08 p/s and 3.50E+08 p/s and 4.61E+08 p/s and 4.45E+08 p/s
- Total Flux [p/s] [1, 4]: 1.30E+09 p/s and 1.10E+09 p/s and 6.50E+08 p/s and 9.71E+08 p/s and 1.65E+09 p/s and 8.95E+08 p/s and 8.72E+08 p/s and 1.18E+09 p/s and 1.23E+09 p/s
- Total flux minus background control mouse (ROI 1) [1, 4]: 1.29E+09 p/s and 1.09E+09 p/s and 6.41E+08 p/s and 9.63E+08 p/s and 1.64E+09 p/s and 8.87E+08 p/s and 8.64E+08 p/s and 1.18E+09 p/s and 1.22E+09 p/s
- Total Flux [p/s] [1, 5]: 3.56E+09 p/s and 4.83E+09 p/s and 3.68E+09 p/s and 6.21E+09 p/s and 6.82E+09 p/s and 2.69E+09 p/s and 4.42E+09 p/s and 4.69E+09 p/s and 4.88E+09 p/s
- Total flux minus background control mouse (ROI 1) [1, 5]: 3.54E+09 p/s and 4.80E+09 p/s and 3.65E+09 p/s and 6.19E+09 p/s and 6.79E+09 p/s and 2.67E+09 p/s and 4.40E+09 p/s and 4.67E+09 p/s and 4.85E+09 p/s
- Total Flux [p/s] [1, 6]: 8.57E+09 p/s and 1.38E+10 p/s and 5.34E+09 p/s and 1.24E+10 p/s and 6.94E+09 p/s and 6.64E+09 p/s and 8.48E+09 p/s and 1.02E+10 p/s and 9.62E+09 p/s
- Total flux minus background control mouse (ROI 1) [1, 6]: 8.51E+09 p/s and 1.38E+10 p/s and 5.28E+09 p/s and 1.23E+10 p/s and 6.88E+09 p/s and 6.58E+09 p/s and 8.42E+09 p/s and 1.02E+10 p/s and 9.56E+09 p/s
- Total Flux [p/s] [1, 7]: 9.23E+09 p/s and 1.74E+10 p/s and 6.63E+09 p/s and 2.32E+10 p/s and 2.87E+10 p/s and 1.25E+10 p/s and 1.47E+10 p/s and 1.56E+10 p/s and 1.06E+10 p/s
- Total flux minus background control mouse (ROI 1) [1, 7]: 9.16E+09 p/s and 1.73E+10 p/s and 6.56E+09 p/s and 2.31E+10 p/s and 2.87E+10 p/s and 1.24E+10 p/s and 1.46E+10 p/s and 1.55E+10 p/s and 1.06E+10 p/s
- Total Flux minus ROI 1 (background) ([1]; Day 27, individual ROI (one per animal), background-subtracted, listed as ABT-199): 2.02E+10 p/s and 1.49E+10 p/s and 4.29E+10 p/s and 4.73E+10 p/s and 2.09E+10 p/s and 3.23E+10 p/s and 1.93E+10 p/s and 2.82E+10 p/s
- Total Flux ([1]; Day 27, individual ROI (one per animal, ROI 2-10), raw value, listed as ABT-199): 2.04E+10 p/s and 1.50E+10 p/s and 4.31E+10 p/s and 4.74E+10 p/s and 2.11E+10 p/s and 3.24E+10 p/s and 1.94E+10 p/s and 2.84E+10 p/s
- Total Flux [p/s] [1, 8]: 3.95E+10 p/s and 4.22E+10 p/s and 3.73E+10 p/s and 1.10E+11 p/s and 6.34E+10 p/s and 6.46E+10 p/s and 6.17E+10 p/s and 4.73E+10 p/s and 4.87E+10 p/s
- Total flux minus background control mouse (ROI 1) [1, 8]: 3.92E+10 p/s and 4.19E+10 p/s and 3.70E+10 p/s and 1.10E+11 p/s and 6.31E+10 p/s and 6.43E+10 p/s and 6.13E+10 p/s and 4.70E+10 p/s and 4.84E+10 p/s
- Total Flux minus ROI 1 (background) ([1]; Day 34, individual ROI (one per animal), background-subtracted, listed as ABT-199): 6.39E+10 p/s and 5.69E+10 p/s and 4.58E+10 p/s and 3.00E+11 p/s and 1.05E+11 p/s and 1.25E+11 p/s and 8.20E+10 p/s and 1.20E+11 p/s and 6.30E+10 p/s
- Total Flux ([1]; Day 34, individual ROI (one per animal, ROI 2-10), raw value, listed as ABT-199): 6.47E+10 p/s and 5.77E+10 p/s and 4.66E+10 p/s and 3.01E+11 p/s and 1.06E+11 p/s and 1.26E+11 p/s and 8.28E+10 p/s and 1.21E+11 p/s and 6.39E+10 p/s
- Total Flux minus ROI 1 (background) ([1]; Day 38, individual ROI (one per animal), background-subtracted, listed as ABT-199): 3.53E+10 p/s and 1.45E+11 p/s and 3.00E+11 p/s and 1.27E+11 p/s and 1.37E+11 p/s and 1.69E+11 p/s and 9.41E+10 p/s and 1.57E+11 p/s
- Total Flux ([1]; Day 38, individual ROI (one per animal, ROI 2-10), raw value, listed as ABT-199): 3.60E+10 p/s and 1.46E+11 p/s and 3.01E+11 p/s and 1.27E+11 p/s and 1.38E+11 p/s and 1.69E+11 p/s and 9.48E+10 p/s and 1.57E+11 p/s
- Total Flux minus ROI 1 (background) ([1]; Day 41, individual ROI (one per animal), background-subtracted, listed as ABT-199): 2.65E+11 p/s and 1.77E+09 p/s and 1.55E+11 p/s and 4.70E+11 p/s and -1.25E+08 p/s and 2.06E+11 p/s and 5.84E+11 p/s and 2.05E+08 p/s and 1.78E+11 p/s
- Total Flux ([1]; Day 41, individual ROI (one per animal, ROI 2-10), raw value, listed as ABT-199): 2.66E+11 p/s and 3.30E+09 p/s and 1.57E+11 p/s and 4.71E+11 p/s and 1.41E+09 p/s and 2.08E+11 p/s and 5.85E+11 p/s and 1.74E+09 p/s and 1.80E+11 p/s
- Total Flux minus ROI 1 (background) ([1]; Day 45, individual ROI (one per animal), background-subtracted, listed as ABT-199): -3.57E+08 p/s and -4.07E+08 p/s and -2.51E+08 p/s and -8.01E+08 p/s and 2.76E+08 p/s and 4.15E+11 p/s and -2.10E+07 p/s and 1.27E+08 p/s and 8.71E+11 p/s
- Total Flux ([1]; Day 45, individual ROI (one per animal, ROI 2-10), raw value, listed as ABT-199): 9.69E+08 p/s and 9.19E+08 p/s and 1.08E+09 p/s and 5.25E+08 p/s and 1.60E+09 p/s and 4.16E+11 p/s and 1.30E+09 p/s and 1.45E+09 p/s and 8.72E+11 p/s
- Total Flux minus ROI 1 (background) ([1]; Day 52, individual ROI (one per animal), background-subtracted, listed as ABT-199): 4.43E+11 p/s and 2.98E+10 p/s
- Total Flux minus ROI 1 (background) ([1]; Day55, individual ROI (one per animal), background-subtracted): 5.08E+11 p/s
- Total Flux ([1]; Day55, individual ROI (one per animal, ROI 2-10), raw value): 5.09E+11 p/s
- bioluminescence signal, group Average, 10 min post ([1]; day 6): 7.85E+07
- bioluminescence signal, individual mouse (ear tag), 10 min post ([1]; day 6): 6.21E+07 and 5.74E+07 and 4.57E+07 and 1.10E+08 and 9.71E+07 and 7.20E+07 and 8.40E+07 and 9.10E+07
- bioluminescence signal, group Average, 10 min post ([1]; day 10): 5.02E+08
- bioluminescence signal, individual mouse (ear tag), 10 min post ([1]; day 10): 3.02E+08 and 5.77E+08 and 2.27E+08 and 9.68E+08 and 7.24E+08 and 4.68E+08 and 3.50E+08 and 4.61E+08
- bioluminescence signal, group Average, 10 min post ([1]; day 13): 1.09E+09
- bioluminescence signal, group Average, 10 min post ([1]; day 17): 4.62E+09
- bioluminescence signal, individual mouse (ear tag), 10 min post ([1]; day 17): 3.54E+09 and 4.80E+09 and 3.65E+09 and 6.19E+09 and 6.79E+09 and 2.67E+09 and 4.40E+09 and 4.67E+09
- bioluminescence signal, group Average, 10 min post ([1]; day 20): 9.05E+09
- bioluminescence signal, individual mouse (ear tag), 10 min post ([1]; day 20): 8.51E+09 and 1.38E+10 and 5.28E+09 and 1.23E+10 and 6.88E+09 and 6.58E+09 and 8.42E+09 and 1.02E+10
- bioluminescence signal, group Average, 10 min post ([1]; day 24): 1.53E+10
- bioluminescence signal, individual mouse (ear tag), 10 min post ([1]; day 24): 9.16E+09 and 1.73E+10 and 6.56E+09 and 2.31E+10 and 2.87E+10 and 1.24E+10 and 1.46E+10 and 1.55E+10
- bioluminescence signal, group Average, 10 min post ([1]; day 27): 2.79E+10
- bioluminescence signal, individual mouse (ear tag), 10 min post ([1]; day 27): 2.48E+10 and 2.02E+10 and 1.49E+10 and 4.29E+10 and 4.73E+10 and 2.09E+10 and 3.23E+10 and 1.93E+10
- bioluminescence signal, group Average, 10 min post ([1]; day 31): 5.69E+10
- bioluminescence signal, group Average, 10 min post ([1]; day 34): 1.07E+11
- bioluminescence signal, group Average, 10 min post ([1]; day 38): 1.45E+11
- bioluminescence signal, group Average, 10 min post ([1]; day 41): 3.10E+11
- bioluminescence signal, individual mouse (ear tag), 10 min post ([1]; day 41): 2.65E+11 and 1.55E+11 and 4.70E+11 and 2.06E+11 and 5.84E+11
- bioluminescence signal, group Average, 10 min post ([1]; day 45): 6.43E+11
- bioluminescence signal, individual mouse (ear tag), 10 min post ([1]; day 45): 4.15E+11
- bioluminescence signal, group Average, 10 min post ([1]; day 48): 2.37E+11
- bioluminescence signal, individual mouse (ear tag), 10 min post ([1]; day 48): 4.43E+11
- bioluminescence signal, group Average, 10 min post ([1]; day 55): 8.71E+11
- effect on OCI-AML2 xenograft growth [2]: no meaningful effect
